Laboratory results as given in patent US20070043013A1, “1,3 Disubstituted azetidine derivatives for use as ccr-3 receptor antagonists in the treatment of inflammatory and allergic diseases” (priority 2003, published 2007).

Legend:
[1] = target: histamine H1 (Homo sapiens, UniProt P35367); test: histamine H1 antagonism
[2] = target: alpha-1 adrenergic receptor; test: alpha-1 adrenergic receptor radioligand binding assay ([125I]-HEAT, rat cerebral cortex membranes); settings: radioligand used at 40 pM
Description: The inhibitory properties of agents of the invention on binding of the alpha-1 adrenergic receptor can be determined in the following assay:
Cerebral cortices from male Sprague-Dawley rats (175-200 g) are dissected and homogenised in 10 volumes of ice cold 0.32 M sucrose (containing 1 mM MgCl2 dihydrate and 1 mM K2HPO4) with a glass/Teflon homogeniser. The membranes are centrifuged at 1000×g for 15 miN, the pellet discarded and the centrifugation repeated. The supernatants are pooled and centrifuged at 18,000×g for 15 minutes. The pellet is osmotically shocked in 10 volumes of water and kept on ice for 30 minutes. The suspension is centrifuged at 39,000×g for 20 minutes, resuspended in Krebs-Henseleit buffer pH 7.4 (1.17 mM MgS04 anhydrous, 4.69 mM KCl, 0.7 mM K2HPO4 anhydrous, 0.11 M NaCl, 11 mM D-glucose and 25 mM NaHCO3) containing 20 mM Tris, and kept for 2 days at −20° C. The membranes are then thawed at 20-23° C., washed three times with Krebs-Henseleit buffer by centrifugation at 18,000×g for 15 minutes, left overnight at 4° C. and washed again three times. […]
The resulting membranes are subjected to a radioligand binding assay. […] Following drying of the plates for 3 h. at 50° C., 40 μl of Microscint 20 is added to each well, the plates incubated at room temperature for a further 20 minutes and the retained radioactivity quantified in a Packard TopCount NXT™ scintillation counter. […]

Chain of histamine H1 (P35367 whole entry): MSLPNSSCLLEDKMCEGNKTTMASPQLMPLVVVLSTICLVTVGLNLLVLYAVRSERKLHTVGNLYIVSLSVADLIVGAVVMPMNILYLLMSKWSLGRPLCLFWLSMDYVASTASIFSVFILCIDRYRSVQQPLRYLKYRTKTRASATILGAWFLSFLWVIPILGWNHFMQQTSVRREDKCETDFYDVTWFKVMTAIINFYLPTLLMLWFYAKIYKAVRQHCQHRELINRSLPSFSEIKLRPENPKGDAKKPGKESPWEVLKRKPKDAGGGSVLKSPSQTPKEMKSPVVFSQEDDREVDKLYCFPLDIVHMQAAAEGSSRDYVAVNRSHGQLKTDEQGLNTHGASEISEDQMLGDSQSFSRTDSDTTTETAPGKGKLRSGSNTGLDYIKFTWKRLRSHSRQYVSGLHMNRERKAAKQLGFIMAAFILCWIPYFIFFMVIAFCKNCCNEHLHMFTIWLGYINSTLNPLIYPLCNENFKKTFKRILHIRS

histamine H1 antagonist activity [1]	Kd [2] [nM]	SMILES
histamine H1 antagonists		CCc1nnc(NC(=O)N[C@@H]2CCCC[C@@H]2CN2CC(Oc3ccc(Cl)cc3)C2)s1 (racemic) [Example 31, (+/−)1-{(1R,2R)-2-[3-(4-Chloro-phenoxy)-azetidin-1-yl-methyl]-cyclohexyl}-3-(5-ethyl-[1,3,4]thiadiazol-2-yl)-urea]
histamine H1 antagonists		CCc1nnc(NC(=O)N[C@H](CO)CCN2CC(Sc3ccc(Cl)cc3)C2)s1 [Example 19, 1-{(S)-3-[3-(4-Chloro-phenylsulfanyl)-azetidin-1-yl]-1-hydroxymethyl-propyl}-3-(5-ethyl-[1,3,4]thiadiazol-2-yl)-urea]
	0.0589 ± 0.0187	O=C1c2ccccc2CCC1CNCCc1ccc(O)c(I)c1 (stereo not drawn) [[^125I]-HEAT]
